Laboratory results from ChEMBL document CHEMBL1148995, “Antitumor agents from bohemic acid complex, VI. Schaunardimycin” (J Nat Prod, 1984).

Experiments:
L1210 [1] = assay: Antitumor activity against mouse L1210 cells implanted in CDF1 mouse assessed as median survival time at 12.8 mg/kg, ip single dose on day 1; type: functional; details: route intraperitoneal
L1210 [2] = assay: Antitumor activity against mouse L1210 cells implanted in CDF1 mouse assessed as median survival time at 6.4 mg/kg, ip single dose on day 1; type: functional; details: route intraperitoneal
L1210 [3] = assay: Antitumor activity against mouse L1210 cells implanted in CDF1 mouse assessed as median survival time at 3.2 mg/kg, ip single dose on day 1; type: functional; details: route intraperitoneal
L1210 [4] = assay: Antitumor activity against mouse L1210 cells implanted in CDF1 mouse assessed as median survival time at 1.6 mg/kg, ip single dose on day 1; type: functional; details: route intraperitoneal
L1210 [5] = assay: Antitumor activity against mouse L1210 cells implanted in CDF1 mouse assessed as median survival time at 0.8 mg/kg, ip single dose on day 1; type: functional; details: route intraperitoneal
L1210 [6] = assay: Antitumor activity against mouse L1210 cells implanted in CDF1 mouse assessed as median survival time at 0.4 mg/kg, ip single dose on day 1; type: functional; details: route intraperitoneal
L1210 [7] = assay: Antitumor activity against mouse L1210 cells implanted in CDF1 mouse assessed as median survival time at 0.2 mg/kg, ip single dose on day 1; type: functional; details: route intraperitoneal
L1210 [8] = assay: Antitumor activity against mouse L1210 cells implanted in CDF1 mouse assessed as median survival time at 6.4 mg/kg, ip qd for 1 to 5 days; type: functional; details: route intraperitoneal
L1210 [9] = assay: Antitumor activity against mouse L1210 cells implanted in CDF1 mouse assessed as median survival time at 3.2 mg/kg, ip qd for 1 to 5 days; type: functional; details: route intraperitoneal
L1210 [10] = assay: Antitumor activity against mouse L1210 cells implanted in CDF1 mouse assessed as median survival time at 1.6 mg/kg, ip qd for 1 to 5 days; type: functional; details: route intraperitoneal
L1210 [11] = assay: Antitumor activity against mouse L1210 cells implanted in CDF1 mouse assessed as median survival time at 0.8 mg/kg, ip qd for 1 to 5 days; type: functional; details: route intraperitoneal
L1210 [12] = assay: Antitumor activity against mouse L1210 cells implanted in CDF1 mouse assessed as median survival time at 0.4 mg/kg, ip qd for 1 to 5 days; type: functional; details: route intraperitoneal
L1210 [13] = assay: Antitumor activity against mouse L1210 cells implanted in CDF1 mouse assessed as median survival time at 0.2 mg/kg, ip qd for 1 to 5 days; type: functional; details: route intraperitoneal
L1210 [14] = assay: Antitumor activity against mouse L1210 cells implanted in CDF1 mouse at 12.8 mg/kg, ip single dose on day 1 relative to control; type: functional; details: route intraperitoneal
L1210 [15] = assay: Antitumor activity against mouse L1210 cells implanted in CDF1 mouse at 6.4 mg/kg, ip single dose on day 1 relative to control; type: functional; details: route intraperitoneal
L1210 [16] = assay: Antitumor activity against mouse L1210 cells implanted in CDF1 mouse at 3.2 mg/kg, ip single dose on day 1 relative to control; type: functional; details: route intraperitoneal
L1210 [17] = assay: Antitumor activity against mouse L1210 cells implanted in CDF1 mouse at 1.6 mg/kg, ip single dose on day 1 relative to control; type: functional; details: route intraperitoneal
L1210 [18] = assay: Antitumor activity against mouse L1210 cells implanted in CDF1 mouse at 0.8 mg/kg, ip single dose on day 1 relative to control; type: functional; details: route intraperitoneal
L1210 [19] = assay: Antitumor activity against mouse L1210 cells implanted in CDF1 mouse at 0.4 mg/kg, ip single dose on day 1 relative to control; type: functional; details: route intraperitoneal
L1210 [20] = assay: Antitumor activity against mouse L1210 cells implanted in CDF1 mouse at 0.2 mg/kg, ip single dose on day 1 relative to control; type: functional; details: route intraperitoneal
L1210 [21] = assay: Antitumor activity against mouse L1210 cells implanted in CDF1 mouse at 6.4 mg/kg, ip qd for 1 to 5 days relative to control; type: functional; details: route intraperitoneal
L1210 [22] = assay: Antitumor activity against mouse L1210 cells implanted in CDF1 mouse at 3.2 mg/kg, ip qd for 1 to 5 days relative to control; type: functional; details: route intraperitoneal
L1210 [23] = assay: Antitumor activity against mouse L1210 cells implanted in CDF1 mouse at 1.6 mg/kg, ip qd for 1 to 5 days relative to control; type: functional; details: route intraperitoneal
L1210 [24] = assay: Antitumor activity against mouse L1210 cells implanted in CDF1 mouse at 0.8 mg/kg, ip qd for 1 to 5 days relative to control; type: functional; details: route intraperitoneal
L1210 [25] = assay: Antitumor activity against mouse L1210 cells implanted in CDF1 mouse at 0.4 mg/kg, ip qd for 1 to 5 days relative to control; type: functional; details: route intraperitoneal
Mus musculus [26] = assay: Toxicity in mouse L1210 cells implanted CDF1 mouse assessed as average weight gain at 12.8 mg/kg, ip single dose on day 1; type: organism-based; set-up: dose 12.8 mg/kg, route intraperitoneal; details: in vivo
Mus musculus [27] = assay: Toxicity in mouse L1210 cells implanted CDF1 mouse assessed as average weight gain at 6.4 mg/kg, ip single dose on day 1; type: organism-based; set-up: dose 6.4 mg/kg, route intraperitoneal; details: in vivo
Mus musculus [28] = assay: Toxicity in mouse L1210 cells implanted CDF1 mouse assessed as average weight gain at 3.2 mg/kg, ip single dose on day 1; type: organism-based; set-up: dose 3.2 mg/kg, route intraperitoneal; details: in vivo
Mus musculus [29] = assay: Toxicity in mouse L1210 cells implanted CDF1 mouse assessed as average weight gain at 1.6 mg/kg, ip single dose on day 1; type: organism-based; set-up: dose 1.6 mg/kg, route intraperitoneal; details: in vivo
Mus musculus [30] = assay: Toxicity in mouse L1210 cells implanted CDF1 mouse assessed as average weight gain at 0.8 mg/kg, ip single dose on day 1; type: organism-based; set-up: dose 0.8 mg/kg, route intraperitoneal; details: in vivo
Mus musculus [31] = assay: Toxicity in mouse L1210 cells implanted CDF1 mouse assessed as average weight gain at 0.4 mg/kg, ip single dose on day 1; type: organism-based; set-up: dose 0.4 mg/kg, route intraperitoneal; details: in vivo
Mus musculus [32] = assay: Toxicity in mouse L1210 cells implanted CDF1 mouse assessed as average weight gain at 0.2 mg/kg, ip single dose on day 1; type: organism-based; set-up: dose 0.2 mg/kg, route intraperitoneal; details: in vivo
Mus musculus [33] = assay: Toxicity in mouse L1210 cells implanted CDF1 mouse assessed as average weight gain at 6.4 mg/kg, ip qd for 1 to 5 days; type: organism-based; set-up: dose 6.4 mg/kg, route intraperitoneal; details: in vivo
Mus musculus [34] = assay: Toxicity in mouse L1210 cells implanted CDF1 mouse assessed as average weight gain at 3.2 mg/kg, ip qd for 1 to 5 days; type: organism-based; set-up: dose 3.2 mg/kg, route intraperitoneal; details: in vivo
Mus musculus [35] = assay: Toxicity in mouse L1210 cells implanted CDF1 mouse assessed as average weight gain at 1.6 mg/kg, ip qd for 1 to 5 days; type: organism-based; set-up: dose 1.6 mg/kg, route intraperitoneal; details: in vivo
Mus musculus [36] = assay: Toxicity in mouse L1210 cells implanted CDF1 mouse assessed as average weight gain at 0.8 mg/kg, ip qd for 1 to 5 days; type: organism-based; set-up: dose 0.8 mg/kg, route intraperitoneal; details: in vivo
Mus musculus [37] = assay: Toxicity in mouse L1210 cells implanted CDF1 mouse assessed as average weight gain at 0.4 mg/kg, ip qd for 1 to 5 days; type: organism-based; set-up: dose 0.4 mg/kg, route intraperitoneal; details: in vivo
Mus musculus [38] = assay: Toxicity in mouse L1210 cells implanted CDF1 mouse assessed as average weight gain at 0.2 mg/kg, ip qd for 1 to 5 days; type: organism-based; set-up: dose 0.2 mg/kg, route intraperitoneal; details: in vivo
Mus musculus [39] = assay: Toxicity in mouse L1210 cells implanted CDF1 mouse assessed as survivors on day 5 at 12.8 mg/kg, ip single dose on day 1; type: organism-based; set-up: dose 12.8 mg/kg, route intraperitoneal; details: in vivo
Mus musculus [40] = assay: Toxicity in mouse L1210 cells implanted CDF1 mouse assessed as survivors on day 5 at 6.4 mg/kg, ip single dose on day 1; type: organism-based; set-up: dose 6.4 mg/kg, route intraperitoneal; details: in vivo
Mus musculus [41] = assay: Toxicity in mouse L1210 cells implanted CDF1 mouse assessed as survivors on day 5 at 3.2 mg/kg, ip single dose on day 1; type: organism-based; set-up: dose 3.2 mg/kg, route intraperitoneal; details: in vivo
Mus musculus [42] = assay: Toxicity in mouse L1210 cells implanted CDF1 mouse assessed as survivors on day 5 at 1.6 mg/kg, ip single dose on day 1; type: organism-based; set-up: dose 1.6 mg/kg, route intraperitoneal; details: in vivo
Mus musculus [43] = assay: Toxicity in mouse L1210 cells implanted CDF1 mouse assessed as survivors on day 5 at 0.8 mg/kg, ip single dose on day 1; type: organism-based; set-up: dose 0.8 mg/kg, route intraperitoneal; details: in vivo
Mus musculus [44] = assay: Toxicity in mouse L1210 cells implanted CDF1 mouse assessed as survivors on day 5 at 0.4 mg/kg, ip single dose on day 1; type: organism-based; set-up: dose 0.4 mg/kg, route intraperitoneal; details: in vivo
Mus musculus [45] = assay: Toxicity in mouse L1210 cells implanted CDF1 mouse assessed as survivors on day 5 at 3.2 mg/kg, ip qd for 1 to 5 days; type: organism-based; set-up: dose 3.2 mg/kg, route intraperitoneal; details: in vivo
Mus musculus [46] = assay: Toxicity in mouse L1210 cells implanted CDF1 mouse assessed as survivors on day 5 at 1.6 mg/kg, ip qd for 1 to 5 days; type: organism-based; set-up: dose 1.6 mg/kg, route intraperitoneal; details: in vivo
Mus musculus [47] = assay: Toxicity in mouse L1210 cells implanted CDF1 mouse assessed as survivors on day 5 at 0.8 mg/kg, ip qd for 1 to 5 days; type: organism-based; set-up: dose 0.8 mg/kg, route intraperitoneal; details: in vivo
Mus musculus [48] = assay: Toxicity in mouse L1210 cells implanted CDF1 mouse assessed as survivors on day 5 at 0.4 mg/kg, ip qd for 1 to 5 days; type: organism-based; set-up: dose 0.4 mg/kg, route intraperitoneal; details: in vivo
Mus musculus [49] = assay: Toxicity in mouse L1210 cells implanted CDF1 mouse assessed as survivors on day 5 at 0.2 mg/kg, ip qd for 1 to 5 days; type: organism-based; set-up: dose 0.2 mg/kg, route intraperitoneal; details: in vivo
Mus musculus [50] = assay: Toxicity in mouse L1210 cells implanted CDF1 mouse assessed as median survival time at 25.6 mg/kg, ip single dose on day 1; type: organism-based; set-up: dose 25.6 mg/kg, route intraperitoneal; details: in vivo
L1210 [51] = assay: Antitumor activity against mouse L1210 cells implanted in CDF1 mouse at 0.2 mg/kg, ip qd for 1 to 5 days relative to control; type: functional; details: route intraperitoneal

CC[C@@]1(O)C[C@H](O[C@H]2C[C@H](N(C)C)[C@H](O[C@H]3C[C@H](O)[C@H](O)[C@H](C)O3)[C@H](C)O2)c2c(cc3c(c2O)C(=O)c2c(O)ccc(O)c2C3=O)[C@H]1C(=O)OC [MUSETTAMYCIN]
MST (L1210 [1]): 10 days
MST (L1210 [2]): 9.5 days
MST (L1210 [3]): 8 days
MST (L1210 [4]): 8 days
MST (L1210 [5]): 7 days
MST (L1210 [6]): 6.5 days
MST (L1210 [7]): 6 days
MST (L1210 [8]): 6 days
MST (L1210 [9]): 10 days
MST (L1210 [10]): 9.5 days
MST (L1210 [11]): 8 days
MST (L1210 [12]): 7 days
MST (L1210 [13]): 6.5 days
T/C (L1210 [14]): 167%
T/C (L1210 [15]): 158%
T/C (L1210 [16]): 133%
T/C (L1210 [17]): 133%
T/C (L1210 [18]): 117%
T/C (L1210 [19]): 108%
T/C (L1210 [20]): 100%
T/C (L1210 [21]): 100%
T/C (L1210 [22]): 167%
T/C (L1210 [23]): 158%
T/C (L1210 [24]): 133%
T/C (L1210 [25]): 117%
Activity (Mus musculus [26]): -2.3 g
Activity (Mus musculus [27]): 0.3 g
Activity (Mus musculus [28]): 0.8 g
weight gain (Mus musculus [29]): 0.7 g
weight gain (Mus musculus [30]): 2.6 g
weight gain (Mus musculus [31]): 2.7 g
weight gain (Mus musculus [32]): 2.7 g
Activity (Mus musculus [33]): -1.9 g
Activity (Mus musculus [34]): -1.2 g
weight gain (Mus musculus [35]): 0.3 g
weight gain (Mus musculus [36]): 1.4 g
weight gain (Mus musculus [37]): 2.3 g
weight gain (Mus musculus [38]): 2.8 g
Activity (Mus musculus [39]): Active
Activity (Mus musculus [40]): Active
Activity (Mus musculus [41]): Active
Activity (Mus musculus [42]): Active
Activity (Mus musculus [43]): Active
Activity (Mus musculus [44]): Active
Activity (Mus musculus [45]): Active
Activity (Mus musculus [46]): Active
Activity (Mus musculus [47]): Active
Activity (Mus musculus [48]): Active
Activity (Mus musculus [49]): Active
Activity (Mus musculus [50]): Toxic
T/C (L1210 [51]): 117%
